In one assay the target is T1, Peregrin (Homo sapiens) (UniProt P55201).
T1 sequence (whole entry): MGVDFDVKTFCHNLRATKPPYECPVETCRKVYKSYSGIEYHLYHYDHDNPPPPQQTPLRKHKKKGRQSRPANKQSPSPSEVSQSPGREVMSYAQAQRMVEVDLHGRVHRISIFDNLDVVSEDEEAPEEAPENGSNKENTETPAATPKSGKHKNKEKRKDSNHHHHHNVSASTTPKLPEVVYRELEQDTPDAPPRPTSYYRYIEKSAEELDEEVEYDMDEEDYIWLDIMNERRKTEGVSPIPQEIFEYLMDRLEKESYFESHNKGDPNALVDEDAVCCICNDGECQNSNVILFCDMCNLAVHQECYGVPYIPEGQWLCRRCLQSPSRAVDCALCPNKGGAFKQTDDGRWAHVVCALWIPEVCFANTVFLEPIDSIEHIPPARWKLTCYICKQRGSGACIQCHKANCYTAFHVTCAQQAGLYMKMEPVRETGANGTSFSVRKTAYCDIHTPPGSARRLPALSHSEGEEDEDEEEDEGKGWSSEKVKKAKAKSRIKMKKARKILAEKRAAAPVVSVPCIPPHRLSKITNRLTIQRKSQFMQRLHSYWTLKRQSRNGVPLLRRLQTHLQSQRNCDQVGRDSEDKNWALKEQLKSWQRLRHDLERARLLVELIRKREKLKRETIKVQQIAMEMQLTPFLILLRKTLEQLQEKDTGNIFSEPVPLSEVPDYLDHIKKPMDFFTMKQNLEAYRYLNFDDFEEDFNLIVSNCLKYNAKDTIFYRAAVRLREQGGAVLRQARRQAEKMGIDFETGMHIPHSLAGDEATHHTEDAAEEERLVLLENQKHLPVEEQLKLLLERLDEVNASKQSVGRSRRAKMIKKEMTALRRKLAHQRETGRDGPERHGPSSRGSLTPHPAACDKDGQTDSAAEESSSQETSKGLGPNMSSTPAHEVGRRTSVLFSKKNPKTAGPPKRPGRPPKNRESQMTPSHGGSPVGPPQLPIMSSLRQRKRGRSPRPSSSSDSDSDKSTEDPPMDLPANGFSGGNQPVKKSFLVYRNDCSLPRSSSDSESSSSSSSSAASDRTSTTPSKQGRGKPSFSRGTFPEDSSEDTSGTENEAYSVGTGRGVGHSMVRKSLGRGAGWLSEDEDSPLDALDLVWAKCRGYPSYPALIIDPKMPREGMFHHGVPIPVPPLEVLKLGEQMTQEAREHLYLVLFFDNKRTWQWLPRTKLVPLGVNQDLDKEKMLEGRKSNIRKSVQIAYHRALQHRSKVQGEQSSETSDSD
As to the kind of experiment: Binding affinity to BRPF1 (unknown origin) using biotinylated histone peptide H4 as substrate at 1 uM incubated for 2 hrs by AlphaScreen assay relative to control.

Assay [1] concerns the target SWI/SNF-related matrix-associated actin-dependent regulator of chromatin subfamily A member 4 (Homo sapiens) (UniProt P51532). As to the kind of experiment: Binding affinity to SMARCA4 (unknown origin) using biotinylated histone peptide H4 as substrate at 1 uM incubated for 2 hrs by AlphaScreen assay relative to control.
The species named for assay [2] is Homo sapiens. As to conditions: time 30.0 min.
The target of assay [3] is T2, Bromodomain-containing protein 9 (Homo sapiens) (UniProt Q9H8M2).
T2 sequence (whole entry): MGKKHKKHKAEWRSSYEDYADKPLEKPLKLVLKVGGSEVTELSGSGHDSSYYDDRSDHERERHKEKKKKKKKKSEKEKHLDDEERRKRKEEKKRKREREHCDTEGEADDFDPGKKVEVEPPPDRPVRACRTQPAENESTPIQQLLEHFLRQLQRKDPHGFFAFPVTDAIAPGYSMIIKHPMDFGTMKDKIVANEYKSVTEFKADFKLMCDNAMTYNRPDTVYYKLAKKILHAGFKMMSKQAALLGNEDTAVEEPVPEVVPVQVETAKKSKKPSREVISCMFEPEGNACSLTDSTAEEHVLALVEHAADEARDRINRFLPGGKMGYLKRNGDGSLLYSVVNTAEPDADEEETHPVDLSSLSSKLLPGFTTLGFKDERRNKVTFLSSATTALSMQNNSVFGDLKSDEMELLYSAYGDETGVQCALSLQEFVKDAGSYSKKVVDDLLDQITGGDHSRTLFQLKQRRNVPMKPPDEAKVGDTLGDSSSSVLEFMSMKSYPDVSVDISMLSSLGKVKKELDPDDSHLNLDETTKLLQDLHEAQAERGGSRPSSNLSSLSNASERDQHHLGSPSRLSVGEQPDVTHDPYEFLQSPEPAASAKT
The settings on record: time 30.0 min.

Assay [4] addresses T3, Transcription intermediary factor 1-alpha (Homo sapiens) (UniProt O15164).
T3 sequence (whole entry): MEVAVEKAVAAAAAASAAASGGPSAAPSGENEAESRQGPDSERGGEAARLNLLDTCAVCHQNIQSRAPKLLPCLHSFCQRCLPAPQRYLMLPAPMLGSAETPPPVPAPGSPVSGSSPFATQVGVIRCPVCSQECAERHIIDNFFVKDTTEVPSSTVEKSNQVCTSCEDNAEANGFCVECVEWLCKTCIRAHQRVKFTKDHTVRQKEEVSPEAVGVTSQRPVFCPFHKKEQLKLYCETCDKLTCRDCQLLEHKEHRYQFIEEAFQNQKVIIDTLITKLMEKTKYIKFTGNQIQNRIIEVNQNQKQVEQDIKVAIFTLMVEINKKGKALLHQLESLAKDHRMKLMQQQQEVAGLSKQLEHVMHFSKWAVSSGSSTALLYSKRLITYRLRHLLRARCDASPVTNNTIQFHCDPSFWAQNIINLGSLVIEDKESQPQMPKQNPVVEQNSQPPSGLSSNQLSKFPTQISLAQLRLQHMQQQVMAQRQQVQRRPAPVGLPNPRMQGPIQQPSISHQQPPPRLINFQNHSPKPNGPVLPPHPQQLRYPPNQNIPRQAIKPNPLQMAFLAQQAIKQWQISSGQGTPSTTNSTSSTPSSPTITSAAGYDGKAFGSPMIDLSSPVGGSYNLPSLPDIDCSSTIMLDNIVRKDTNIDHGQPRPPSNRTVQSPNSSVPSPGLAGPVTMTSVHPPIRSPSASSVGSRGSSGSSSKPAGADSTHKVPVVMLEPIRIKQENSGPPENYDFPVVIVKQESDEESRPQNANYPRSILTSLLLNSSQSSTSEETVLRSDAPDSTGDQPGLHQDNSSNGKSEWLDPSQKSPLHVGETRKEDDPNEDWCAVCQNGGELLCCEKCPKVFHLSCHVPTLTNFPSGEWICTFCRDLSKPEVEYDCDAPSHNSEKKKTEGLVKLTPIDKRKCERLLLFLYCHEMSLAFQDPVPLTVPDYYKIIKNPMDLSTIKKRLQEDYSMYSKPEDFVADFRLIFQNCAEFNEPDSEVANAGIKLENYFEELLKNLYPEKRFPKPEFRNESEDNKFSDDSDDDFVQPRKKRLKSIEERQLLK
As to conditions: time 30.0 min.

Assay [5] is filed under the species Homo sapiens. The settings on record: time 30.0 min. The source holds these as a separate data set.

Chain of SWI/SNF-related matrix-associated actin-dependent regulator of chromatin subfamily A member 4 (Homo sapiens) (P51532 whole entry): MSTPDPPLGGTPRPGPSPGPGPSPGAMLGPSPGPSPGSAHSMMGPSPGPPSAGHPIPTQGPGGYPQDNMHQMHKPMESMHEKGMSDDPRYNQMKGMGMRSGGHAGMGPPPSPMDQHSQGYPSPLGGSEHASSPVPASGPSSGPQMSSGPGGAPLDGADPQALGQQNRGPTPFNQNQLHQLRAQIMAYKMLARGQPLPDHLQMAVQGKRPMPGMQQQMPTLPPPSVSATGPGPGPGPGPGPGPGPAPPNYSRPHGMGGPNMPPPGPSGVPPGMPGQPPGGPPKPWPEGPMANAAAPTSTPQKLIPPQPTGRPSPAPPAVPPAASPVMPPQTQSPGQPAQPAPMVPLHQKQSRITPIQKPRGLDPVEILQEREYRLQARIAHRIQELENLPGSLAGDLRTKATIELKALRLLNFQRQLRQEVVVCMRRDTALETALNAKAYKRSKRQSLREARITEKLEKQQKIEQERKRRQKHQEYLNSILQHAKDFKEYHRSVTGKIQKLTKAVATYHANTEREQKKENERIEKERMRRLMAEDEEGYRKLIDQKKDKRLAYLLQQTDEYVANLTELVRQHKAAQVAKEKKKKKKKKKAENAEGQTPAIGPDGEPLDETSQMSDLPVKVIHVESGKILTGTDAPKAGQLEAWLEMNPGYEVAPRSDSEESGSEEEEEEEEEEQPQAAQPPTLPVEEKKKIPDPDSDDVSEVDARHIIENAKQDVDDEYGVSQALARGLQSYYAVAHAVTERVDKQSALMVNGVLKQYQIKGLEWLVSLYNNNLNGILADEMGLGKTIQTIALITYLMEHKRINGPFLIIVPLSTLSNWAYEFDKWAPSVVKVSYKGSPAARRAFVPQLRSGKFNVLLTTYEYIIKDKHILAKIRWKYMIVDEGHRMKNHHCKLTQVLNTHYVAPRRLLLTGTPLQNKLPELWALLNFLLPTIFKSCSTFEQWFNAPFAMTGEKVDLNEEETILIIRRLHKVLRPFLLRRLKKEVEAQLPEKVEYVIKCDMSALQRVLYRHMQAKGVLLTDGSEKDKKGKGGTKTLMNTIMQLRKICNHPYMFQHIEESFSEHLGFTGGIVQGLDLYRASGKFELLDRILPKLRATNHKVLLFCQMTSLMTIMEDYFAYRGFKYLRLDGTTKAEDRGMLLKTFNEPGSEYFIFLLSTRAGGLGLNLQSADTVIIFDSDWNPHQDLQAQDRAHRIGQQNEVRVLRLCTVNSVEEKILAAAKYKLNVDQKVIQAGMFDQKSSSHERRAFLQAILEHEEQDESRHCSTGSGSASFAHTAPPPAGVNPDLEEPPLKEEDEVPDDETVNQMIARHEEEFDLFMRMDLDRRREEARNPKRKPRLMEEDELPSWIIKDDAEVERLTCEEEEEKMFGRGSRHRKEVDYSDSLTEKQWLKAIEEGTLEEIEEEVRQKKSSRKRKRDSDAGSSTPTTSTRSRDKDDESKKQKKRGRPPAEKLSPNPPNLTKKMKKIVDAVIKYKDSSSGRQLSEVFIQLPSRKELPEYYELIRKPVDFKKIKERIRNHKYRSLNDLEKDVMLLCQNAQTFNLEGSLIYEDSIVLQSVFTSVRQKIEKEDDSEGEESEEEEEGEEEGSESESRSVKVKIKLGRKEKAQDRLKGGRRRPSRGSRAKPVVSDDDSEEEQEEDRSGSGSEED

With `COc1cc2c(cc1-c1c(C)noc1C)ncc1nc(C)n([C@H](C)c3ccccc3)c12`, the Activity (on Peregrin (Homo sapiens); in assay [1]) was below 30% throughout. For the same molecule, the ΔTm (in the assay filed under Homo sapiens [2]; in assay [3]; in assay [4]; in the assay filed under Homo sapiens [5]) was 0 °C throughout.

Take `COc1cc2c(cc1-c1c(C)n[nH]c1C)ncc1nc(C)n([C@H](C)c3ccccc3)c12`: the Activity (at Peregrin (Homo sapiens); in assay [1]) was below 30% throughout. Also, the ΔTm (in the assay listed under Homo sapiens [2]; in assay [3]; in assay [4]; in the assay filed under Homo sapiens [5]) was 0 °C in each case.
